Test results published in the NIST ThermoML archive (doi:10.1021/je0340809).

Test: xn = mol fraction of the nth substance listed
Details: 101.3 kPa, Liquid

CN1CCCC1=O [N-methylpyrrolidone] + O
Details | mass density, 298.15 K [kg/m3] | mass density, 308.15 K [kg/m3] | mass density, 318.15 K [kg/m3] | speed of sound, 298.15 K [m/s] | speed of sound, 308.15 K [m/s] | speed of sound, 318.15 K [m/s] | viscosity, 298.15 K [mPa·s] | viscosity, 308.15 K [mPa·s] | viscosity, 318.15 K [mPa·s]
x2 = 0.0522 | 1029.55 | 1020.49 | 1011.19 | 1548.8 | 1521.3 | 1480.9 | 1.721 | 1.405 | 1.232
x2 = 0.1684 | 1032.9 | 1023.58 | 1014.09 | 1561 | 1533.3 | 1493 | 1.985 | 1.588 | 1.35
x2 = 0.2465 | 1035.15 | 1025.1 | 1016.08 | 1579.5 | 1549.9 | 1508.9 | 2.147 | 1.702 | 1.429
x2 = 0.3481 | 1038.13 | 1028.58 | 1018.81 | 1616.8 | 1578.3 | 1535.9 | 2.535 | 1.979 | 1.613
x2 = 0.4534 | 1041.65 | 1032.02 | 1022.08 | 1653.8 | 1610.1 | 1566.5 | 3.346 | 2.567 | 2.03
x2 = 0.5018 | 1043.41 | 1033.74 | 1023.72 | 1667.7 | 1624.8 | 1580.9 | 3.838 | 2.925 | 2.287
x2 = 0.5493 | 1045.11 | 1035.39 | 1025.31 | 1682 | 1639.5 | 1595.4 | 4.338 | 3.289 | 2.547
x2 = 0.6504 | 1047.71 | 1037.97 | 1027.9 | 1711.3 | 1672 | 1628.2 | 5.159 | 3.885 | 2.973
x2 = 0.752 | 1046.06 | 1036.73 | 1027.12 | 1738.2 | 1702.6 | 1661.2 | 5.071 | 3.814 | 2.905
x2 = 0.8536 | 1035.21 | 1027.32 | 1019.09 | 1748.1 | 1707.3 | – | 3.65 | 2.76 | –
x2 = 0.8742 | 1031.43 | 1024.02 | – | 1738.4 | 1700.3 | – | 3.224 | 2.446 | –
x2 = 0.8849 | 1029.24 | 1022.1 | – | 1730.9 | 1694.9 | – | 2.992 | 2.273 | –
x2 = 0.8996 | 1025.97 | 1019.23 | – | 1716.8 | 1685.4 | – | 2.668 | 2.034 | –
x2 = 0.9257 | 1019.43 | 1013.52 | – | 1681.1 | 1661.1 | – | 2.093 | 1.609 | –
x2 = 0.9368 | 1016.38 | 1010.86 | – | 1661 | 1647.4 | – | 1.857 | 1.435 | –
x2 = 0.9557 | 1010.88 | 1006.06 | – | 1621.2 | 1618.8 | – | 1.487 | 1.16 | –
x2 = 0.9641 | 1008.33 | 1003.83 | – | 1600.8 | 1603.6 | – | 1.338 | 1.051 | –
x2 = 0.9754 | 1004.82 | 1000.77 | – | 1571.3 | 1580.6 | – | 1.16 | 0.92 | –
x2 = 0.99 | 1000.21 | 996.769 | – | 1529.1 | 1546.1 | – | 0.978 | 0.785 | –
